Values after ≈ are worked out from the molar mass of the structure shown. One block for each compound: values may come before it.
Key:
Assay in all cases: ≥ marks a high value that may be exact or a test limit, other limits are often not marked, values filed in µg/mL are converted to µM
[1] = test system: Staphylococcus aureus ATCC 25923
[2] = test system: Escherichia coli ATCC 25922
[3] = test system: Staphylococcus aureus ATCC 29213
[4] = test system: Pseudomonas aeruginosa ATCC 27853

Compound: CSCC[C@H](NC(=O)[C@H](CC(N)=O)NC(=O)[C@H](Cc1ccccc1)NC(=O)CNC(=O)[C@H](CC(=O)O)NC(=O)[C@H](CC(C)C)NC(=O)[C@H](CCCCN)NC(=O)[C@H](CCSC)NC(=O)[C@H](CCC(=O)O)NC(=O)[C@@H](N)CC(=O)O)C(=O)N[C@@H](Cc1cnc[nH]1)C(=O)N[C@@H](CC(C)C)C(=O)N[C@@H](CCC(=O)O)C(N)=O [DEMKLDGFNMHLE]
MIC [1]: 40.5 µM (≈ 63.9 µg/mL) | MIC [2]: 20 µM (≈ 31.6 µg/mL)

Compound: CC[C@H](C)[C@H](NC(=O)[C@H](CCCN=C(N)N)NC(=O)[C@H](CCC(N)=O)NC(=O)[C@@H](NC(=O)[C@@H](NC(=O)[C@H](CCCN=C(N)N)NC(=O)[C@H](CCCCN)NC(=O)[C@@H](N)Cc1ccccc1)[C@@H](C)CC)C(C)C)C(=O)N[C@@H](CCCCN)C(=O)N[C@@H](CC(=O)O)C(=O)N[C@@H](CC(N)=O)C(=O)N[C@@H](CC(C)C)C(=O)N[C@@H](CCCN=C(N)N)C(=O)O [FKRIVQRIKDNLR]
MIC [3]: > 40 µM | MIC [2]: 20 µM (≈ 33.7 µg/mL)

Compound: CC[C@H](C)[C@H](NC(=O)CN)C(=O)NCC(=O)N[C@@H](CCCN=C(N)N)C(=O)N[C@@H](CCCCN)C(=O)N[C@@H](Cc1ccccc1)C(=O)N[C@@H](CC(C)C)C(=O)NCC(=O)NCC(=O)N[C@H](C(=O)N[C@@H](CCCCN)C(=O)N[C@H](C(=O)N[C@H](C(=O)N[C@@H](Cc1ccccc1)C(=O)N[C@@H](CCCN=C(N)N)C(=O)N[C@@H](CS)C(=O)NCC(=O)N[C@H](C(=O)N[C@@H](CCCCN)C(=O)N[C@@H](CC(=O)O)C(=O)N[C@@H](Cc1ccccc1)C(=O)N[C@@H](C)C(=O)N[C@@H](CO)C(=O)N[C@@H](CCCCN)C(=O)N[C@@H](Cc1cnc[nH]1)C(=O)N[C@@H](CC(C)C)C(=O)N[C@@H](Cc1ccc(O)cc1)C(N)=O)C(C)C)[C@@H](C)O)[C@@H](C)O)C(C)C [GIGRKFLGGVKTTFRCGVKDFASKHLY]
MIC [2]: 150 µM (≈ 448 µg/mL)

Compound: CC[C@H](C)[C@H](NC(=O)CN)C(=O)N[C@@H](CCCCN)C(=O)N[C@@H](CC(=O)O)C(=O)N[C@@H](CC(C)C)C(=O)N[C@@H](CC(C)C)C(=O)N[C@@H](CCCCN)C(=O)NCC(=O)N[C@@H](C)C(=O)N[C@@H](C)C(=O)N[C@@H](CCCCN)C(=O)N[C@@H](C)C(=O)N[C@@H](CC(C)C)C(=O)N[C@H](C(=O)N[C@@H](CCCCN)C(=O)N[C@H](C(=O)N[C@H](C(=O)N[C@@H](CC(C)C)C(=O)N[C@@H](Cc1ccccc1)C(N)=O)C(C)C)[C@@H](C)O)C(C)C [GIKDLLKGAAKALVKTVLF]
MIC [2]: 3 µM (≈ 5.95 µg/mL)

Compound: CC[C@H](C)[C@H](NC(=O)[C@H](CCCN=C(N)N)NC(=O)[C@H](CCCCN)NC(=O)[C@H](CC(C)C)NC(=O)[C@H](CC(C)C)NC(=O)CN)C(=O)N[C@@H](CCCCN)C(N)=O [GLLKRIK]
MIC [1]: > 33.9 µM | MIC [2]: > 33.9 µM

Compound: CC[C@H](C)[C@H](NC(=O)[C@H](CCCN=C(N)N)NC(=O)[C@H](CCCCN)NC(=O)[C@@H](NC(=O)[C@@H](NC(=O)CN)C(C)C)C(C)C)C(=O)N[C@@H](CCCCN)C(=O)N[C@H](C(=O)N[C@H](C(=O)N[C@H](C(N)=O)C(C)C)C(C)C)[C@@H](C)O [GVVKRIKTVV]
MIC [2]: > 200 µM

Compound: CC(C)C[C@H](NC(=O)[C@@H](NC(=O)[C@H](CCCCN)NC(=O)CNC(=O)[C@H](Cc1ccccc1)NC(=O)[C@@H](NC(=O)[C@H](CC(=O)O)NC(=O)CNC(=O)[C@H](Cc1c[nH]c2ccccc12)NC(=O)CN)[C@@H](C)O)C(C)C)C(=O)N[C@@H](CCCCN)C(=O)N[C@@H](CC(N)=O)C(=O)N[C@@H](Cc1ccccc1)C(=O)N[C@@H](C)C(=O)N[C@@H](CCCCN)C(=O)N[C@H](C(=O)N[C@@H](C)C(=O)NCC(=O)N[C@H](C(=O)N[C@@H](CCCCN)C(=O)N[C@@H](C)C(=O)N[C@@H](C)C(=O)N[C@@H](CCCCN)C(=O)O)C(C)C)C(C)C [GWGDTFGKVLKNFAKVAGVKAAK]
MIC [1]: > 64 µM

Compound: C[C@H](NC(=O)[C@H](C)NC(=O)[C@H](CCCCN)NC(=O)[C@H](CCCCN)NC(=O)[C@H](C)NC(=O)[C@H](C)NC(=O)[C@H](CCCCN)NC(=O)[C@H](C)NC(=O)[C@H](C)NC(=O)[C@H](CCCCN)NC(=O)[C@H](CCCCN)NC(=O)[C@H](C)NC(=O)[C@H](C)NC(=O)[C@H](CCCCN)NC(=O)[C@H](C)NC(=O)[C@H](C)NC(=O)[C@H](CCCCN)NC(=O)[C@H](CCCCN)NC(=O)[C@H](C)NC(=O)[C@H](C)NC(=O)[C@@H](N)CCCCN)C(N)=O [KAAKKAAKAAKKAAKAAKKAA]
MIC [1]: 8 µM (≈ 16.2 µg/mL) | MIC [2]: 8 µM (≈ 16.2 µg/mL)

Compound: CC(C)C[C@H](NC(=O)[C@H](CCCCN)NC(=O)CNC(=O)[C@H](CC(C)C)NC(=O)[C@H](CCCCN)NC(=O)[C@H](CCCCN)NC(=O)CNC(=O)[C@H](CC(C)C)NC(=O)[C@@H](N)CCCCN)C(=O)NCC(=O)N[C@@H](CCCCN)C(=O)N[C@@H](CCCCN)C(=O)N[C@@H](CC(C)C)C(=O)NCC(N)=O [KLGKKLGKLGKKLG]
MIC [1]: 22 µM (≈ 32.3 µg/mL) | MIC [2]: 22 µM (≈ 32.3 µg/mL)

Compound: CC(C)C[C@H](NC(=O)[C@@H](NC(=O)[C@H](C)NC(=O)CNC(=O)[C@H](Cc1c[nH]c2ccccc12)NC(=O)[C@H](CC(N)=O)NC(=O)[C@@H](N)CC(C)C)C(C)C)C(=O)N[C@@H](CCCCN)C(=O)N[C@@H](Cc1cnc[nH]1)C(=O)N[C@H](C(=O)N[C@H](C(=O)N[C@@H](CCCCN)C(=O)O)C(C)C)C(C)C [LNWGAVLKHVVK]
MIC [4]: 32 µM (≈ 43.6 µg/mL)

More lines, now with the values ahead:

MIC [1]: 100 µM (≈ 148 µg/mL) | MIC [2]: > 125 µM
Compound: CC(C)[C@H](NC(=O)[C@H](C)NC(=O)[C@@H](N)Cc1ccccc1)C(=O)N[C@H](C(=O)N[C@@H](Cc1c[nH]c2ccccc12)C(=O)N[C@@H](C)C(=O)N[C@H](C(=O)N[C@@H](CCCCN)C(=O)N[C@@H](Cc1c[nH]c2ccccc12)C(=O)N[C@@H](Cc1c[nH]c2ccccc12)C(=O)N[C@@H](CCCCN)C(=O)NCC(N)=O)[C@@H](C)O)[C@@H](C)O [FAVTWATKWWKG]

MIC [1]: > 3.1 µM | MIC [2]: 15.5 µM (≈ 24.7 µg/mL)
Compound: CC(C)[C@H](NC(=O)[C@@H]1CCCN1C(=O)[C@@H](N)Cc1ccccc1)C(=O)N[C@H](C(=O)N[C@@H](Cc1c[nH]c2ccccc12)C(=O)N[C@@H](CCCN=C(N)N)C(=O)N[C@H](C(=O)N[C@@H](CCCCN)C(=O)N[C@@H](Cc1c[nH]c2ccccc12)C(=O)N[C@@H](Cc1c[nH]c2ccccc12)C(=O)N[C@@H](CCCCN)C(=O)NCC(N)=O)[C@@H](C)O)[C@@H](C)O [FPVTWRTKWWKG]

MIC [2]: 2.81 µM (≈ 4 µg/mL)
Compound: NCCCC[C@H](NC(=O)[C@H](Cc1c[nH]c2ccccc12)NC(=O)[C@H](Cc1c[nH]c2ccccc12)NC(=O)[C@H](CCCCN)NC(=O)[C@H](CCCCN)NC(=O)[C@H](Cc1c[nH]c2ccccc12)NC(=O)[C@@H](N)CCCCN)C(=O)N[C@@H](Cc1c[nH]c2ccccc12)C(=O)N[C@@H](Cc1ccccc1)C(N)=O [KWKKWWKWF]

MIC [2]: 4 µM (≈ 7.05 µg/mL)
Compound: CC(C)C[C@H](NC(=O)[C@H](Cc1ccccc1)NC(=O)[C@H](C)NC(=O)[C@H](Cc1c[nH]c2ccccc12)NC(=O)[C@H](Cc1c[nH]c2ccccc12)NC(=O)[C@H](Cc1c[nH]c2ccccc12)NC(=O)[C@@H]1CCCN1C(=O)[C@H](Cc1ccccc1)NC(=O)[C@H](CCCCN)NC(=O)[C@H](CCCCN)NC(=O)[C@@H](N)C(C)C)C(=O)N[C@@H](CCCCN)C(=O)N[C@@H](CCCCN)C(N)=O [VKKFPWWWAFLKK]

MIC [4]: 18.6 µM (≈ 20 µg/mL) | MIC [1]: 4.65 µM (≈ 5 µg/mL) | MIC [2]: 9.3 µM (≈ 9.99 µg/mL)
Compound: NC(=O)[C@H](Cc1c[nH]c2ccccc12)NC(=O)[C@H](CCCN=C(N)N)NC(=O)[C@H](Cc1c[nH]c2ccccc12)NC(=O)[C@H](CCCN=C(N)N)NC(=O)[C@H](Cc1c[nH]c2ccccc12)NC(=O)[C@@H](N)Cc1c[nH]c2ccccc12 [WWRWRW]

Source: DBAASP
